Literature values as cited in US20190083649A1, “CROSSLINKED POLYMER NANO-ASSEMBLIES AND USES THEREOF” (University of Massachusetts, priority 2017, published 2019).

pKa of the protonated form of the amine: around 6.2
SMILES: C=C(C)C(=O)OCCN(C(C)C)C(C)C [DPA, 2-(diisopropylamino)ethyl methacrylate]
